{"source": "patent US9932637B2", "about": "“Genetic polymorphisms associated with cardiovascular disorders and drug response, methods of detection and uses thereof” (CELERA CORPORATION, priority 2003, dated 2018)", "system": "patients with prior myocardial infarction (CARE study)", "test": "CARE aligned analysis (prospective and case/control design, white males): association of genotypes with pravastatin efficacy (Tables 13, 15)", "format": "in vivo, human", "conditions": "for Pravastatin vs placebo odds ratio, 0 rare alleles / Pravastatin vs placebo odds ratio, 1 rare allele / Pravastatin vs placebo odds ratio, 2 rare alleles / 2 rare alleles n/total (%), pravastatin patients: CARE, F MI/SD/NF MI; for Pravastatin Patients (%) / Pravastatin Patients n/total: WM", "protocol": "The data presented in Table 8 based on an association of genotypes with pravastatin efficacy of the CARE samples were further analyzed and presented in Table 13. The further analysis was performed to align the data obtained from the analysis of the CARE samples, which was a prospective study, to the analysis of the WOSCOP samples, which was a case/control study. Table 13 also presents an analysis of the association of genotypes with pravastatin efficacy in the WOSCOPs samples. Relative to the analysis performed on the data presented in Table 8, there are two significant differences to determine if the SNP influenced pravastatin efficacy. Data obtained from the CARE samples were separated by study design into two groups, those in the prospective study design group and those in the case/control study design group. The original care study contained 16 protocol defined cardiovascular disease defined endpoints and 150 other phenotypes. […] The control groups used to compare the data were also divided into two groups, the “all possible” control group and the “cleaner” control group. […] Because the participants in the WOSCOPs trial were all white males, only data obtained from white males in the CARE study were analysed. Data from the “all possible” and “cleaner” controls were compared to data obtained from the cases in the prospective study design while only data from “cleaner” controls were compared to cases in the case/control study design. The data from the case/control cohorts were analysed using conditional logistic regression (as opposed to logistic regression used for the original anaylsis).\nThe anaylsis was refined as described for both Tables 13 and 14.", "key": {"[1]": {"conditions": "KLK14 hCV16044337, 0 Rare Alleles, CARE Case/Control, F&NF MI, All Possible controls"}, "[2]": {"conditions": "KLK14 hCV16044337, 0 Rare Alleles, CARE Case/Control, F&NF MI, Cleaner controls"}, "[3]": {"conditions": "KLK14 hCV16044337, 0 Rare Alleles, CARE Prospective, F&NF MI, All Possible controls"}, "[4]": {"conditions": "KLK14 hCV16044337, 0 Rare Alleles, CARE Prospective, F&NF MI, Cleaner controls"}, "[5]": {"conditions": "KLK14 hCV16044337, 1 Rare Allele, CARE Case/Control, F&NF MI, All Possible controls"}, "[6]": {"conditions": "KLK14 hCV16044337, 1 Rare Allele, CARE Case/Control, F&NF MI, Cleaner controls"}, "[7]": {"conditions": "KLK14 hCV16044337, 1 Rare Allele, CARE Prospective, F&NF MI, All Possible controls"}, "[8]": {"conditions": "KLK14 hCV16044337, 1 Rare Allele, CARE Prospective, F&NF MI, Cleaner controls"}, "[9]": {"conditions": "KLK14 hCV16044337, Case/Control"}, "[10]": {"conditions": "LPA hCV11225994, 0 Rare Alleles, CARE Case/Control, F&NF MI, Cleaner controls"}, "[11]": {"conditions": "LPA hCV11225994, 1 Rare Allele, CARE Case/Control, F&NF MI, Cleaner controls"}, "[12]": {"conditions": "MYH7 hCV25629396, 0 Rare Alleles, CARE Case/Control, F&NF MI, Cleaner controls"}, "[13]": {"conditions": "MYH7 hCV25629396, 0 Rare Alleles, CARE Prospective, F&NF MI, Cleaner controls"}, "[14]": {"conditions": "MYH7 hCV25629396, 1 Rare Allele, CARE Case/Control, F&NF MI, All Possible controls"}, "[15]": {"conditions": "MYH7 hCV25629396, 1 Rare Allele, CARE Case/Control, F&NF MI, Cleaner controls"}, "[16]": {"conditions": "MYH7 hCV25629396, 1 Rare Allele, CARE Prospective, F&NF MI, All Possible controls"}, "[17]": {"conditions": "MYH7 hCV25629396, 1 Rare Allele, CARE Prospective, F&NF MI, Cleaner controls"}, "[18]": {"conditions": "NOS3 hCV3219460, 0 Rare Alleles, CARE Case/Control, F&NF MI, All Possible controls"}, "[19]": {"conditions": "NOS3 hCV3219460, 0 Rare Alleles, CARE Case/Control, F&NF MI, Cleaner controls"}, "[20]": {"conditions": "NOS3 hCV3219460, 0 Rare Alleles, CARE Prospective, F&NF MI, All Possible controls"}, "[21]": {"conditions": "NOS3 hCV3219460, 0 Rare Alleles, CARE Prospective, F&NF MI, Cleaner controls"}, "[22]": {"conditions": "NOS3 hCV3219460, 1 Rare Allele, CARE Case/Control, F&NF MI, All Possible controls"}, "[23]": {"conditions": "NOS3 hCV3219460, 1 Rare Allele, CARE Case/Control, F&NF MI, Cleaner controls"}, "[24]": {"conditions": "NOS3 hCV3219460, 1 Rare Allele, CARE Prospective, F&NF MI, All Possible controls"}}, "note": "Where “and” joins values, the source holds several entries; their conditions need not be identical. Identical values can stand only once."}
{"smiles": "CC[C@H](C)C(=O)O[C@H]1C[C@H](O)C=C2C=C[C@H](C)[C@H](CC[C@@H](O)C[C@@H](O)CC(=O)O)[C@H]21", "note": "[pravastatin]", "values": [{"measurement": "Pravastatin vs placebo odds ratio, 0 rare alleles", "setting": "KDR hCV22271999, Case/Control", "value": "0.67 and 0.59"}, {"measurement": "Pravastatin vs placebo odds ratio, 1 rare allele", "setting": "KDR hCV22271999, Case/Control", "value": 1.69}, {"measurement": "Pravastatin vs placebo odds ratio, 2 rare alleles", "setting": "KDR hCV22271999, Case/Control", "value": "0.38 and 0.31"}, {"measurement": "2 rare alleles n/total (%), pravastatin patients", "setting": "KDR hCV22271999, Prospective", "value": "(9.1%)"}, {"measurement": "Pravastatin vs placebo odds ratio, 0 rare alleles", "setting": "KDR hCV22271999, Prospective", "value": 0.61}, {"measurement": "Pravastatin vs placebo odds ratio, 1 rare allele", "setting": "KDR hCV22271999, Prospective", "value": 1.41}, {"measurement": "Pravastatin vs placebo odds ratio, 2 rare alleles", "setting": "KDR hCV22271999, Prospective", "value": 0.27}, {"measurement": "Pravastatin Patients (%)", "setting": "[1]", "value": "(10.9%)"}, {"measurement": "Pravastatin Patients n/total", "setting": "[1]", "value": "60/548"}, {"measurement": "Pravastatin Patients (%)", "setting": "[2]", "value": "(16.4%)"}, {"measurement": "Pravastatin Patients n/total", "setting": "[2]", "value": "60/365"}, {"measurement": "Pravastatin Patients (%)", "setting": "[3]", "value": "(10.7%)"}, {"measurement": "Pravastatin Patients n/total", "setting": "[3]", "value": "60/560"}, {"measurement": "Pravastatin Patients (%)", "setting": "[4]", "value": "(16.0%)"}, {"measurement": "Pravastatin Patients n/total", "setting": "[4]", "value": "60/374"}, {"measurement": "Pravastatin Patients (%)", "setting": "[5]", "value": "(10.4%)"}, {"measurement": "Pravastatin Patients n/total", "setting": "[5]", "value": "57/547"}, {"measurement": "Pravastatin Patients (%)", "setting": "[6]", "value": "(14.3%)"}, {"measurement": "Pravastatin Patients n/total", "setting": "[6]", "value": "57/399"}, {"measurement": "Pravastatin Patients (%)", "setting": "[7]", "value": "(10.3%)"}, {"measurement": "Pravastatin Patients n/total", "setting": "[7]", "value": "57/556"}, {"measurement": "Pravastatin Patients (%)", "setting": "[8]", "value": "(14.1%)"}, {"measurement": "Pravastatin Patients n/total", "setting": "[8]", "value": "57/404"}, {"measurement": "Pravastatin vs placebo odds ratio, 0 rare alleles", "setting": "[9]", "value": "1.02 and 0.98"}, {"measurement": "Pravastatin vs placebo odds ratio, 1 rare allele", "setting": "[9]", "value": "0.85 and 0.74"}, {"measurement": "Pravastatin vs placebo odds ratio, 2 rare alleles", "setting": "[9]", "value": 0.23}, {"measurement": "Pravastatin vs placebo odds ratio, 0 rare alleles", "setting": "KLK14 hCV16044337, Prospective", "value": "1.04 and 0.97"}, {"measurement": "Pravastatin vs placebo odds ratio, 1 rare allele", "setting": "KLK14 hCV16044337, Prospective", "value": "0.86 and 0.73"}, {"measurement": "Pravastatin vs placebo odds ratio, 2 rare alleles", "setting": "KLK14 hCV16044337, Prospective", "value": "0.22 and 0.23"}, {"measurement": "Pravastatin Patients (%)", "setting": "[10]", "value": "(14.0%)"}, {"measurement": "Pravastatin Patients n/total", "setting": "[10]", "value": "88/627"}, {"measurement": "Pravastatin Patients (%)", "setting": "[11]", "value": "(15.4%)"}, {"measurement": "Pravastatin Patients n/total", "setting": "[11]", "value": "29/188"}, {"measurement": "2 Rare Alleles (%), Pravastatin Patients", "setting": "LPA hCV11225994, CARE Case/Control, F&NF MI", "value": "(41.2%)"}, {"measurement": "2 rare alleles n/total (%), pravastatin patients", "setting": "MICA hCV25474101, Case/Control", "value": "(37.5%)"}, {"measurement": "Pravastatin vs placebo odds ratio, 0 rare alleles", "setting": "MICA hCV25474101, Case/Control", "value": 0.67}, {"measurement": "Pravastatin vs placebo odds ratio, 1 rare allele", "setting": "MICA hCV25474101, Case/Control", "value": 0.72}, {"measurement": "Pravastatin vs placebo odds ratio, 2 rare alleles", "setting": "MICA hCV25474101, Case/Control", "value": 6.64}, {"measurement": "Pravastatin Patients (%)", "setting": "MYH7 hCV25629396, 0 Rare Alleles, CARE Case/Control, F&NF MI, All Possible controls", "value": "(10.0%)"}, {"measurement": "Pravastatin Patients (%)", "setting": "[12]", "value": "(14.5%)"}, {"measurement": "Pravastatin Patients n/total", "setting": "[12]", "value": "118/815"}, {"measurement": "Pravastatin Patients (%)", "setting": "MYH7 hCV25629396, 0 Rare Alleles, CARE Prospective, F&NF MI, All Possible controls", "value": "(9.8%)"}, {"measurement": "Pravastatin Patients (%)", "setting": "[13]", "value": "(14.2%)"}, {"measurement": "Pravastatin Patients n/total", "setting": "[13]", "value": "118/829"}, {"measurement": "Pravastatin Patients (%)", "setting": "[14]", "value": "(29.0%)"}, {"measurement": "Pravastatin Patients n/total", "setting": "[14]", "value": "9/31"}, {"measurement": "Pravastatin Patients (%)", "setting": "[15]", "value": "(40.9%)"}, {"measurement": "Pravastatin Patients n/total", "setting": "[15]", "value": "9/22"}, {"measurement": "Pravastatin Patients (%)", "setting": "[16]", "value": "(29.0%)"}, {"measurement": "Pravastatin Patients n/total", "setting": "[16]", "value": "9/31"}, {"measurement": "Pravastatin Patients (%)", "setting": "[17]", "value": "(40.9%)"}, {"measurement": "Pravastatin Patients n/total", "setting": "[17]", "value": "9/22"}, {"measurement": "Pravastatin vs placebo odds ratio, 0 rare alleles", "setting": "MYH7 hCV25629396, Case/Control", "value": "0.75 and 0.67"}, {"measurement": "Pravastatin vs placebo odds ratio, 1 rare allele", "setting": "MYH7 hCV25629396, Case/Control", "value": "12.05 and 11.70"}, {"measurement": "Pravastatin vs placebo odds ratio, 0 rare alleles", "setting": "MYH7 hCV25629396, Prospective", "value": "0.75 and 0.66"}, {"measurement": "Pravastatin vs placebo odds ratio, 1 rare allele", "setting": "MYH7 hCV25629396, Prospective", "value": "13.41 and 14.00"}, {"measurement": "Pravastatin Patients (%)", "setting": "[18]", "value": "(10.0%)"}, {"measurement": "Pravastatin Patients n/total", "setting": "[18]", "value": "53/529"}, {"measurement": "Pravastatin Patients (%)", "setting": "[19]", "value": "(14.8%)"}, {"measurement": "Pravastatin Patients n/total", "setting": "[19]", "value": "53/359"}, {"measurement": "Pravastatin Patients (%)", "setting": "[20]", "value": "(9.8%)"}, {"measurement": "Pravastatin Patients n/total", "setting": "[20]", "value": "53/539"}, {"measurement": "Pravastatin Patients (%)", "setting": "[21]", "value": "(14.4%)"}, {"measurement": "Pravastatin Patients n/total", "setting": "[21]", "value": "53/368"}, {"measurement": "Pravastatin Patients (%)", "setting": "[22]", "value": "(12.3%)"}, {"measurement": "Pravastatin Patients n/total", "setting": "[22]", "value": "64/520"}, {"measurement": "Pravastatin Patients (%)", "setting": "[23]", "value": "(17.6%)"}, {"measurement": "Pravastatin Patients n/total", "setting": "[23]", "value": "64/363"}, {"measurement": "Pravastatin Patients (%)", "setting": "[24]", "value": "(12.1%)"}, {"measurement": "Pravastatin Patients n/total", "setting": "[24]", "value": "64/527"}, {"measurement": "Pravastatin Patients (%)", "setting": "NOS3 hCV3219460, 1 Rare Allele, CARE Prospective, F&NF MI, Cleaner controls", "value": "(17.5%)"}]}
